The text below walks through data of US9962350B2, “Agent for improving normal development rate of fertilized eggs” (SBI Pharmaceuticals Co., Ltd., priority 2014, dated 2018).

Each structure is given as a SMILES string.

This assay deals with fertilized eggs of the C57BL/6J lineage. Briefly: In vitro culture of natural mating-derived fertilized eggs in M16 medium supplemented with ALA; embryo development. Type of assay: cell-based, mouse. Conditions: 37° C. The source says:
The female mice used to harvest fertilized eggs were female mice of the C57BL/6J lineage (21 weeks old to 27 weeks old, body weight: 21.0 to 24.5 g). The male mice used for mating were male mice of the C57BL/6J lineage (32 to 38 weeks old, body weight: 30.0 to 35.5 g). According to a routine method of controlled ovarian hyperstimulation, 5 U (units) of equine chorionic gonadotropin (serum gonadotrophin) (manufactured by ASKA Pharmaceutical Co., Ltd.) were intraperitoneally administered to each female mouse. 45 to 48 hours later, 5 U (units) of gonadotropin (human chorionic gonadotropin) (manufactured by ASKA Pharmaceutical Co., Ltd.) were intraperitoneally administered to each female mouse. Immediately after the administration of gonadotropin, each female mouse was mated with each male mouse described above.
On the next day, the presence or absence of a milky resin-like vaginal plug was determined for the mated female mice, and the oviducts were harvested from the female mice confirmed to have the vaginal plug. The harvested oviducts were left standing in physiological saline (0.9% (w/v) NaCl) for approximately 15 minutes and then transferred into M16 medium supplemented with approximately 300 μg/mL of hyaluronidase (manufactured by Sigma-Aldrich Corp.) for cumulus cell removal treatment. The oviducts were incised, and fertilized eggs were isolated and left standing at 37° C. for 5 to 10 minutes in a CO2 incubator. Then, the fertilized eggs separated from the cumulus cells were recovered and washed with hyaluronidase-unsupplemented M16 medium to remove hyaluronidase. The resulting cumulus cell-free fertilized eggs were left standing at 37° C. in a CO2 incubator.
Aside therefrom, a drop of 100 μL of M16 medium covered with mineral oil (manufactured by Sigma-Aldrich Corp.) and supplemented with ALA hydrochloride (manufactured by SBI Pharmaceuticals Co., Ltd.) at a final concentration of 0 μM (control), 0.1 μM, 0.5 μM, or 1 μM was prepared in a 35 mm Petri dish and left standing at 37° C. in a CO2 incubator. 29 or 30 of the cumulus cell-free fertilized eggs were transferred to the resulting drop and cultured in vitro at 37° C. in a CO2 incubator.
After a lapse of 24 hours, 48 hours, 72 hours, and 96 hours from the start of the in vitro culture (0 hours) in the drop, the developmental stage of each embryo was determined by observation under a stereoscopic microscope, and the number of embryos whose development progressed normally and change in development rate were calculated. Specifically, the number of 2-cell eggs 24 hours after the start of the culture, the number of 3-cell, 4-cell, and 8-cell eggs 48 hours thereafter, the number of morulae and blastocysts 72 hours thereafter, and the number of blastocysts 96 hours thereafter were counted as embryos whose development progressed normally at each stage. The development rate with the number of fertilized eggs (0 hours) defined as 100% is shown in Table 3 and the graph of FIG. 1. For the evaluation of the development rate, the percentage of the number of embryos whose development progressed normally 24 hours, 48 hours, 72 hours, and 96 hours after the start of the culture was calculated with the number of fertilized eggs (0 hours) defined as 100%, and used as a normal development rate. Because of the natural mating, the number of recovered fertilized eggs (0 hours) includes unfertilized eggs to some extent, and there is the possibility that the content of unfertilized eggs varies accidentally among fertilized eggs (0 hours) populations distributed to the respective condition groups even if the fertilized eggs (0 hours) populations have been recovered in the same experiment. The development rate calculated with the number of 2-cell embryos 24 hours postfertilization defined as 100% was calculated in order to eliminate the influence of the content of unfertilized eggs that varies accidentally among the respective condition groups. […]

On to `NCC(=O)CCC(=O)O` [ALA, 5-aminolevulinic acid], for which the “The number of developed embryos” value reads like this: (0.1 μM ALA, 24 hr) 22; (0.1 μM ALA, 48 hr) 19; (0.1 μM ALA, 72 hr) 14; (0.1 μM ALA, 96 hr) 7; (0.5 μM ALA, 24 hr) 24; (0.5 μM ALA, 48 hr) 21. In addition, the “The number of developed embryos” value is, setting by setting: (0.5 μM ALA, 72 hr) 14; (0.5 μM ALA, 96 hr) 13; (1 μM ALA, 24 hr) 19; (1 μM ALA, 48 hr) 19; (1 μM ALA, 72 hr) 15; (1 μM ALA, 96 hr) 13. Further, the “development rate with the number of fertilized eggs (0 hr) defined as 100%” value by setting is: (0.1 μM ALA, 24 hr) 73%; (0.1 μM ALA, 48 hr) 63%; (0.5 μM ALA, 24 hr) 83%; (0.5 μM ALA, 48 hr) 72%; (1 μM ALA, 24 hr) 66%; (1 μM ALA, 48 hr) 66%. Further, the “development rate with the number of 2-cell embryos 24 hours postfertilization defined as 100%” value is reported as 86% (0.1 μM ALA, 48 hr); 64% (0.1 μM ALA, 72 hr); 88% (0.5 μM ALA, 48 hr); 58% (0.5 μM ALA, 72 hr); 100% (1 μM ALA, 48 hr).
